Experimental data from US10300048B2, “Thiazolidinones as cellular anandamide uptake inhibitors and their use in the treatment of psychiatric or neurological disorders and inflammation, in particular neuroinflammation” (UNIVERSITAT BERN, priority 2014, dated 2019).
Where two headings read alike, the source gives them in different places.

Experiments:
[1] = target: hCB1 receptor (Homo sapiens (Human), UniProt P21554); assay: Radioligand CB receptor binding, [3H]-CP55,940 displacement on CHO-K1 hCB1 membranes; settings: for CB1 receptor binding (%) at 10 µM: Table 4; for CB1 receptor binding % binding at 10 μM: Table 3
Chain of hCB1 receptor (P21554 whole entry): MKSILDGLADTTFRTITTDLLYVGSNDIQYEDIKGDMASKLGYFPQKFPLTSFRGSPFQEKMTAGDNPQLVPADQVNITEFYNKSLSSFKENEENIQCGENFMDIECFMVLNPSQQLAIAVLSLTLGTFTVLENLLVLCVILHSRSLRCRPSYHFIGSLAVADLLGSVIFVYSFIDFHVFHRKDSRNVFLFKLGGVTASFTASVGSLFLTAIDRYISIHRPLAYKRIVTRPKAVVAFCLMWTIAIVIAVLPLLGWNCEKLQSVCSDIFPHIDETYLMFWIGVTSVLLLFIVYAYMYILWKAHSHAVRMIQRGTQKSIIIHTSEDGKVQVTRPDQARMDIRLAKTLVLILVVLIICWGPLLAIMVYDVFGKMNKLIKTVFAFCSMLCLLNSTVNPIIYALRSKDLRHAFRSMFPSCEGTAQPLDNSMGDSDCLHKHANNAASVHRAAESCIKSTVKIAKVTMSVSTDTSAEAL
Procedure: Stably transfected CHO-K1 cells expressing hCB1 or hCB2 receptors (Gertsch et al., 2008, Proc Natl Acad Sci 105, 9099-104) were cultured in T150 cm^2 flasks up to 90% confluence. The medium was removed and cells were washed twice with PBS, 37° C. 10 mL of PBS was added and the cells were scraped and transferred into a falcon tube following homogenization by a Polytron PT1300D for 5 min at 30 krpm. Then, the homogenate was centrifuged (1400×g, 5 min) to remove debris. The supernatant was subjected to ultracentrifugation (64000×g, 45 min, 4° C.) to separate cytosolic from the membrane fraction. The supernatant was discharged and the pellet resuspended in PBS by sonication. Protein quantity was determined by BCA assay (Thermo Scientific) and aliquots of 500 μL were stored at −80° C. until use.
Radioligand CB Receptor Binding
Binding properties of ETI-T compounds to hCB1 or hCB2 receptors were performed as previously reported in a [^3H]-CP55,940 displacement assay (Gertsch et al., 2008, Proc Natl Acad Sci 105, 9099-104). WIN 55,212-2 was used as positive control. In brief, 20 μg protein of CHO-K1 hCB1 or hCB2 membrane preparations were thawed on ice and resuspended in a final volume of 500 μL binding buffer (50 mM Tris-HCl, 2.5 mM EDTA, 5 mM MgCl2, 0.5% fatty acid free BSA, pH 7.4) in silanized glass vials. [^3H]-CP55,940 (168 Ci/mmol) (PerkinElmer, Waltham, Mass., US) was added to a final concentration of 0.5 nM followed by the addition of competitors or vehicle in 5 μL DMSO. Membrane binding was equilibrated for 2 h at room temperature (25° C.). Samples were filter through a 0.1% polyethylenimine pre-soaked UniFilter®-96 GF/B plate (PerkinElmer) and washed twelve times with 167 μL ice-cold assay-buffer. The plate was dried, bottom sealed and 45 μL MicroScint 20 scintillation cocktail (PerkinElmer) were added before measured on a PerkinElmer 1450 Microbeta TRILUX liquid scintillation counter. Unspecific binding was determined by WIN 55,212-2, 10 μM and subtracted from all values. […].

[2] = test system: AEA cellular uptake, U937 cells; assay: [3H]-AEA cellular uptake inhibition in U937 cells; format: cell-based; settings: for IC50: U937 cells
Procedure: [^3H]-AEA Cellular Uptake
Screening for AEA cellular uptake inhibition was performed in a semi-automated procedure: Pipetting and washing steps were performed by a Biomek3000 laboratory workstation. First, required amounts of U937 cells were centrifuged at 100×g for 5 min and resuspended in RPMI (37° C.) to a final concentration of 2×10^6 cells/mL. Then, 250 μL of cell suspension (0.5×10^6 cells per sample) were transferred into AquaSil™ silanized glass vials (Chromacol 1.1-MTV) in 96-well format. After addition of 5 μL vehicle (DMSO) or compounds the cells were incubated at 37° C. for 15 min. As positive controls OMDM-2 and UCM707 were used at 10 μM in each run. The ETI-T compounds were measured at up to 7 concentrations in triplicates from 100 pM-100 μM. After pre-incubation, a mixture of 0.5 nM[ethanolamine-1-^3H]-AEA, (60 Ci/mmol) and 99.5 nM of cold AEA (final 100 nM) was added and samples were incubated at 37° C. for another 15 min. The reaction was stopped by rapid filtration over UniFilter-96 GF/C filters (PerkinElmer) pre-soaked with PBS 0.25% BSA. Cells were washed three times with 100 μL ice-cold PBS buffer containing 1% fatty acid free BSA. After drying, 45 μL MicroScint 20 scintillation cocktail (PerkinElmer, Waltham, Mass., US) was added to the wells and the plate was sealed. Radioactivity was measured by liquid scintillation counting on a PerkinElmer Wallac Trilux MicroBeta 1450 during 2 min. Non-specific binding of [^3H]AEA (100 nM) to the glass vials was never higher than 10%. IC50 values were calculated by GraphPad® by non-linear regression using the built-in log(inhibitor) vs. response-variable slope (four parameters) function.
(§1) Statistical analysis and IC50 values were determined using GraphPad® Prism 5.0 (GraphPad® Software, San Diego, Calif., US). Inhibition curves were obtained by non-linear regression using the built-in log(inhibitor) vs. response-variable slope (four parameters) function. Results were calculated as % of vehicle control of the corresponding fraction (cells, aqueous phase) if not mentioned else. In vivo results are shown in absolute values and were analyzed by a one-way ANOVA following a Tukey's multiple comparison test or student's t-test. If not indicated else the results were compared vs. vehicle (CTRL). *** P<0.001, ** P<0.01, * P<0.05, ns=not significant P>0.05.

[3] = target: FAAH (Homo sapiens (Human), UniProt O00519); assay: FAAH activity: hydrolysis of [3H]-AEA in U937 cell homogenates; format: biochemical; settings: for IC50: U937 cell homogenate, read-out: FAAH inhibition IC50
Chain of FAAH (O00519 whole entry): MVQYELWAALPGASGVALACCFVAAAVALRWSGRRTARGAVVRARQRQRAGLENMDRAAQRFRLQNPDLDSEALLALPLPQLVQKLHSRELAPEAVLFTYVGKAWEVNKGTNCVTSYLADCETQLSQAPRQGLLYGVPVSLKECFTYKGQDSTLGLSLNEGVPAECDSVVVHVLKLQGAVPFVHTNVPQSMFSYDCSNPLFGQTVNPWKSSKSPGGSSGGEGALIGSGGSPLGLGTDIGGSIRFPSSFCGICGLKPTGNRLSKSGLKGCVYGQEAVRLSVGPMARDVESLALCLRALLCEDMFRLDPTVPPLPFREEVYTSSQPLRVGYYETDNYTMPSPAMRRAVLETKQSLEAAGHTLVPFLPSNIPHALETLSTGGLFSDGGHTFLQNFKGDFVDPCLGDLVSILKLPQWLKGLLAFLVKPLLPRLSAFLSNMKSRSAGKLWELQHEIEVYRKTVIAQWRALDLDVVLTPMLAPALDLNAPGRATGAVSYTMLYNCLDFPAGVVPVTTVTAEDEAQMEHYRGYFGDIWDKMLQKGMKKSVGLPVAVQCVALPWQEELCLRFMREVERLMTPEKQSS
Procedure: Hydrolysis of [^3H]-AEA by FAAH was determined as previously described in cell homogenates of U937 cells (0.18 mg protein) (Omeir et al., 1999, Biochem Biophys Res Commun, 264, 316-20; Mor et al., 2004, J Med Chem, 47, 4998-5008). Protein amounts of cell homogenates corresponded to 0.5×10^6 cells (U937), to assure best possible comparability of IC50 values as used for the AEA cellular uptake assays. URB597 was used as positive control. Protein quantification was performed using a BCA assay (Thermo Scientific). Enzyme activity was assessed by addition of vehicle or compounds in 10 μL DMSO to 490 μL homogenate in 10 mM Tris HCl, 1 mM EDTA, 0.1% (w/v) BSA fatty acid free, pH=8 and incubation for 15 min at 37° C. After, a mixture of AEA plus [ethanolamine-1-^3H]-AEA (0.5 nM) at final 100 nM was added to the homogenates and incubated for 15 min at 37° C. The reaction was stopped by addition of 1 mL ice-cold CHCl3:MeOH (1:1) followed by vigorous vortexing. Phase separation was achieved by centrifugation at 10′000×g at 4° C. for 10 min. Radioactivity of the separated aqueous phase (upper phase) containing [^3H-ethanolamine] or [^3H-glycerol] was measured by liquid scintillation counting on a Tri-Carb 2100 TR liquid scintillation analyzer after addition of 3.5 mL Ultima Gold scintillation cocktail (PerkinElmer Life Sciences). Results are expressed as hydrolysis of tritium substrate in percent of vehicle treated control. IC50 values were calculated by GraphPad®. Data are reported as means of n=3 independent experiments performed in triplicates.
as §1

[4] = Homo sapiens, U-937, Table 1, 100 nM AEA, read-out: AEA uptake inhibition IC50
[5] = Homo sapiens, U-937, Table 4, read-out: AEA uptake IC50

Cc1ccc(/N=C2\S/C(=C\c3ccc(O)cc3)C(=O)N2c2ccc(C)cc2)cc1 [Compound 1]
CB1 receptor binding (%) at 10 µM [1]: 33% | IC50 [2, 4]: 0.068 µM | IC50 [2, 5]: 0.068 µM

CCOc1cc(/C=C2\S/C(=N\c3ccc(F)cc3)N(c3ccc(F)cc3)C2=O)ccc1O [Compound 2]
CB1 receptor binding % binding at 10 μM [1]: 33% | CB1 receptor binding (%) at 10 µM [1]: 33% | FAAH inhibition (in words) [3]: Lack of FAAH inhibition | IC50 ([3]; Table 2): 56.2 µM | IC50 ([3]; Table 4): 56.2 µM | IC50 [2, 4]: 0.074 µM | IC50 [2, 5]: 0.074 µM | apparent selectivity for AEA uptake inhibition over FAAH inhibition ([2]; ratio of FAAH IC50 to AEA uptake IC50): ~760 fold

CCOc1cc(/C=C2\S/C(=N\c3cc(Cl)ccc3C)NC2=O)ccc1O [Compound 3]
IC50 ([2]; Table 1, 100 nM AEA, read-out: AEA uptake inhibition IC50): 0.138 µM

C=CCCc1cc(/C=C2\SC(=NCC)N(CC)C2=O)cc(OCC)c1O [Compound 4]
IC50 [2, 4]: 0.145 µM | IC50 [2, 5]: 0.145 µM

C#CCOc1ccc(/C=C2\S/C(=N\c3ccc(OC)cc3)N(CCc3c[nH]c4ccccc34)C2=O)cc1 [Compound 7]
IC50 [2, 4]: 0.266 µM | IC50 [2, 5]: 0.266 µM

CCN1C(=O)/C(=C/c2ccc(O)cc2)S/C1=N\c1ccc(F)cc1 [Compound 8]
IC50 [2, 4]: 0.268 µM | IC50 [2, 5]: 0.268 µM

CCN1C(=O)/C(=C/c2ccc(C)cc2)S/C1=N\c1ccc(OC)cc1 [Compound 9]
IC50 [2, 4]: 0.334 µM | IC50 [2, 5]: 0.334 µM

CCCN1C(=O)/C(=C/c2ccc(N(C)C)cc2)S/C1=N\c1ccccc1 [Compound 10]
CB1 receptor binding (%) at 10 µM [1]: 29% | IC50 ([3]; Table 4): 1.05 µM | IC50 [2, 4]: 0.355 µM | IC50 [2, 5]: 0.355 µM

O=C1/C(=C/c2ccc(O)cc2)S/C(=N\c2ccccc2)N1Cc1ccco1 [Compound 11]
IC50 [2, 4]: 0.434 µM | IC50 [2, 5]: 0.434 µM

CCOc1cc(/C=C2\S/C(=N\c3ccc(C)cc3)N(c3ccc(C)cc3)C2=O)ccc1O [Compound 12]
CB1 receptor binding % binding at 10 μM [1]: 35% | CB1 receptor binding (%) at 10 µM [1]: 35% | IC50 ([3]; Table 2): > 100 µM | IC50 [2, 4]: 0.484 µM | IC50 [2, 5]: 0.484 µM

Cc1ccsc1/C=C1\S/C(=N\c2ccccc2)N(C(C)C)C1=O [Compound 13]
IC50 [2, 4]: 0.51 µM | IC50 [2, 5]: 0.51 µM

COc1ccc(/C=C2\S/C(=N\c3ccccc3)N(c3ccccc3)C2=O)cc1 [Compound 14]
IC50 [2, 4]: 0.542 µM | IC50 [2, 5]: 0.542 µM

CCCOc1cc(/C=C2\S/C(=N\c3ccccc3C)N(c3ccccc3C)C2=O)ccc1O [Compound 15]
IC50 [2, 4]: 0.553 µM | IC50 [2, 5]: 0.553 µM

C=CCc1cc(/C=C2\S/C(=N\c3ccc(C(=O)OC)cc3)N(C)C2=O)cc(OCC)c1O [Compound 16]
CB1 receptor binding % binding at 10 μM [1]: 15% | CB1 receptor binding (%) at 10 µM [1]: 15% | IC50 ([3]; Table 2): > 100 µM | IC50 [2, 4]: 0.571 µM | IC50 [2, 5]: 0.571 µM

CCN1C(=O)/C(=C/c2cc(I)c(O)c(OC)c2)S/C1=N\c1ccccc1 [Compound 17]
IC50 [2, 4]: 0.594 µM | IC50 [2, 5]: 0.594 µM

COc1ccc(/N=C2\S/C(=C\c3ccc(O)cc3)C(=O)N2c2ccc(OC)cc2)cc1 [Compound 18]
IC50 [2, 4]: 0.597 µM | IC50 [2, 5]: 0.597 µM

COc1ccc(/C=C2\S/C(=N\c3ccc(C)cc3)N(c3ccc(C)cc3)C2=O)cc1 [Compound 19]
IC50 [2, 4]: 0.602 µM | IC50 [2, 5]: 0.602 µM

C=CCc1cc(/C=C2\S/C(=N\c3ccccc3)N(Cc3ccco3)C2=O)cc(OC)c1O [Compound 20]
IC50 [2, 4]: 0.661 µM | IC50 [2, 5]: 0.661 µM

Cc1ccc(/N=C2\S/C(=C\c3ccc(O)c(Cl)c3)C(=O)N2c2ccc(C)c(Cl)c2)cc1Cl [Compound 21]
CB1 receptor binding (%) at 10 µM [1]: 45% | IC50 ([3]; Table 4): 58.9 µM | IC50 [2, 4]: 0.798 µM | IC50 [2, 5]: 0.798 µM

C/C=C/c1cc(/C=C2\S/C(=N\c3ccccc3)N(CCOC)C2=O)cc(OCC)c1O [Compound 22]
CB1 receptor binding (%) at 10 µM [1]: 34% | IC50 ([3]; Table 4): > 100 µM | IC50 [2, 4]: 0.899 µM | IC50 [2, 5]: 0.899 µM

COc1cc(/C=C2\S/C(=N\c3ccc(C)cc3)N(c3ccc(C)cc3)C2=O)ccc1O [ETI-T-008 Jspg]
IC50 ([3]; Table 4): 5.37 µM | IC50 [2, 5]: 1.25 µM

COc1ccc(C=C2SC(=Nc3ccc(F)cc3)N(c3ccc(F)cc3)C2=O)cc1OC [ETI-T-343]
IC50 [2, 5]: 1.59 µM

CN(C)c1ccc(/C=C2\S/C(=N\c3ccccc3)N(C3CCCCC3)C2=O)cc1 [ETI-T-385]
CB1 receptor binding (%) at 10 µM [1]: 40% | IC50 ([3]; Table 4): 0.985 µM | IC50 [2, 5]: 1.08 µM

C=CCc1cc(/C=C2/S/C(=N/c3ccc(C)cc3)N(C)C2=O)cc(OCC)c1O [ETI-T-399]
CB1 receptor binding (%) at 10 µM [1]: 41% | IC50 [2, 5]: 1.32 µM

CCCCN1C(=O)/C(=C/c2cc(Br)c(O)c(OCC)c2)S/C1=N\c1ccccc1 [ETI-T-401]
CB1 receptor binding (%) at 10 µM [1]: 42% | IC50 [2, 5]: 1.58 µM

CCOc1cc(/C=C2\S/C(=N\c3ccccc3)N(CCOC)C2=O)ccc1O [ETI-T-410]
IC50 [2, 5]: 1.3 µM

CCCN1C(=O)/C(=C/c2ccc3c(c2)OCO3)S/C1=N\c1ccc(OC)cc1 [ETI-T-426]
CB1 receptor binding (%) at 10 µM [1]: 60% | IC50 [2, 5]: 1.46 µM

CCOc1cc(/C=C2/S/C(=N\c3ccc(C)c(Cl)c3)N(c3ccc(C)c(Cl)c3)C2=O)ccc1O [ETI-T-435]
IC50 [2, 5]: 1.43 µM

CCOc1cc(/C=C2/S/C(=N/c3ccc(F)cc3)N(c3ccc(F)cc3)C2=O)ccc1O [ETI-T-438]
IC50 [2, 5]: 1.35 µM

Cc1ccc(/N=C2\S/C(=C\c3ccc(O)c(Cl)c3)C(=O)N2c2ccc(C)cc2)cc1 [ETI-T-444]
IC50 [2, 5]: 1.15 µM

CCOc1cc(/C=C2/S/C(=N/c3ccc(OC)cc3)N(c3ccc(OC)cc3)C2=O)ccc1O [ETI-T-445]
IC50 [2, 5]: 1.05 µM
